{
  "source": "patent US8455523B2",
  "about": "“Compositions and methods for treating hyperlipidemias” (The Research Foundation of State University of New York, priority 2010, dated 2013)",
  "key": {"[1]": {"system": "C57Bl/6J mice fed western diet", "assay": "MTP inhibitor CP-346086 with or without lovastatin or WY14643 in western diet fed mice: plasma/hepatic lipids, AST/ALT", "format": "in vivo", "settings": "WD 8 weeks", "procedure": "FIGS. 4a and 4b. Effect of MTP inhibitor (CP-34086) on plasma lipids and lipoproteins in C57Bl/6J mice fed western diet ad libitum for 8 weeks. MTP inhibitor solubilzed in DMSO was administered orally for one week (15 mg/kg/day) along with either DMSO (MTPi), lovastatin (50 mg/kg/day), or WY14643 (10 mg/kg/day). Control mice were gavaged with DMSO only.\nFIGS. 5a and 5b. Liver samples from FIG. 4 were used to measure MTP activity (A) and hepatic lipids (B-E). Stars on MPTi group represent comparison between Control and MTPi groups.\nControl group (n=4) received daily oral gavage of DMSO alone. MTPi group received 15 mg/kg/day MTP inhibitor CP-346086 (MTPi) once daily. […] Plasma total and HDL cholesterol were unaffected by MTPi. Combined treatment of MTPi and lovastatin decreased plasma LDL cholesterol. […] Next, we measured changes in plasma hepatic enzymes (FIGS. 4G-H). […] These studies indicate that apart from lowering plasma triglyceride, MTPi enhances plasma AST/ALT and these increases can be avoided by the co-administration of lovastatin."}, "Reversa mice": {"system": "Reversa mice", "procedure": "FIG. 11. Reversa animals were injected with plpC every other day for one week. Lovastatin, T-090317 and WY14643 were administered by oral gavage everyday for 30 days after the first injection. Animals were sacrificed on day 30 and plasma and livers were harvested and analyzed. * represent comparison to PBS injected animals and # represent comparisons to plpC control.\nAnimals: Mttp^tm2Sgy LdIr^tm1Her Apob^tm2Sgy Tg(Mx1-cre)1Cgn/J mice (Reversa) (stock number 004192) were obtained from Jackson Laboratories. Male reversa mice were used to study the effect of mttp gene deletion on plasma and tissue lipids. These animals are transgenic for apolipoprotein B, LDLR^−/− and floxed at exon 1 of the mttp locus. In addition, these mice express cre recombinase under the control of the Mx1 promoter, which is induced after intraperitoneal injection of polyinosinic polycytidylic ribonucleic acid (plpC—Sigma) in the liver, spleen and intestine. Injection of plpC activates the cre recombinase and deletes the mttp gene in the liver and intestines. Reversa mice were injected with either PBS or plpC. Mice injected with plpC were orally gavaged with DMSO (Sigma-Aldrich D8418), DMSO+Lovastatin (50 mg/kg/day) (Calbiochem 438186), DMSO+T0901317 (50 mg/kg/day) (Calbiochem 575310), or DMSO+WY14643 (10 mg/kg/day) (Calbiochem 681725). Mice injected with plpC were also injected with either PBS or Ω-3 fatty acids (SUNY Downstate Medical Center). All animals were given supplemental treatments for 30 days.\nAll animals were kept in 07:00-19:00 h lighting schedule. […] Food was withdrawn 16 h before the sacrifice of the mice. On the day of the experiment, mice were anesthetized and blood was collected from the heart. Liver was collected, washed in ice-cold PBS, cut into small pieces and used for lipid extraction, histological staining, to measure different protein activities/quantities and for mRNA analysis. Lipids were extracted from the tissue homogenates following the Bligh and Dyer method. Triglyceride (Infinity TM Triglyceride, TR22421) and total cholesterol (Infinity TM Cholesterol, TR13421) levels in the tissues were determined using commercial kits (Thermo Scientific). Free cholesterol and free fatty acid levels were measured using kits from Wako Chemicals (Germany). Esterified cholesterol was calculated by subtracting the free cholesterol from the total cholesterol.\nTo determine whether accumulation of hepatic triglyceride and free cholesterol is related to increases in plasma AST/ALT, we sought to reduce these lipids using different chemical compounds of known physiologic effects. Mice injected with plpC were orally gavaged with DMSO, DMSO+Lovastatin (50 mg/kg/day), DMSO+T0901317 (50 mg/kg/day), or DMSO+WY14643 (10 mg/kg/day). Lovastatin (Lova), an HMG-CoA reductase (HMGR) inhibitor, and T0901317 (T0), an LXR agonist, are expected to decrease hepatic free cholesterol by inhibiting endogenous cholesterol synthesis and increasing cholesterol efflux, respectively. WY14643 (WY), a PPARα agonist, increases β-oxidation of fatty acids and lowers hepatic triglycerides.\nTo evaluate the efficacy of Ω-3 FA in reducing hepatic triglyceride, plpC injected mice were treated with intraperitoneal injection of Ω-3 FA (3 mg/kg/2 day) or Ω-3 FA and Lova."}, "MTP": {"molecular_target": "T1, MTP (Mus musculus, UniProt O08601)", "T1 construct": "small pieces (0.1 g) of liver and ˜1-cm segments of proximal small intestine were homogenized; from tissue; host or cells: mouse liver (C57BL/6J; Reversa mice in some experiments); supernatant of ultracentrifuged homogenate", "T1 sequence (O08601 22-894)": "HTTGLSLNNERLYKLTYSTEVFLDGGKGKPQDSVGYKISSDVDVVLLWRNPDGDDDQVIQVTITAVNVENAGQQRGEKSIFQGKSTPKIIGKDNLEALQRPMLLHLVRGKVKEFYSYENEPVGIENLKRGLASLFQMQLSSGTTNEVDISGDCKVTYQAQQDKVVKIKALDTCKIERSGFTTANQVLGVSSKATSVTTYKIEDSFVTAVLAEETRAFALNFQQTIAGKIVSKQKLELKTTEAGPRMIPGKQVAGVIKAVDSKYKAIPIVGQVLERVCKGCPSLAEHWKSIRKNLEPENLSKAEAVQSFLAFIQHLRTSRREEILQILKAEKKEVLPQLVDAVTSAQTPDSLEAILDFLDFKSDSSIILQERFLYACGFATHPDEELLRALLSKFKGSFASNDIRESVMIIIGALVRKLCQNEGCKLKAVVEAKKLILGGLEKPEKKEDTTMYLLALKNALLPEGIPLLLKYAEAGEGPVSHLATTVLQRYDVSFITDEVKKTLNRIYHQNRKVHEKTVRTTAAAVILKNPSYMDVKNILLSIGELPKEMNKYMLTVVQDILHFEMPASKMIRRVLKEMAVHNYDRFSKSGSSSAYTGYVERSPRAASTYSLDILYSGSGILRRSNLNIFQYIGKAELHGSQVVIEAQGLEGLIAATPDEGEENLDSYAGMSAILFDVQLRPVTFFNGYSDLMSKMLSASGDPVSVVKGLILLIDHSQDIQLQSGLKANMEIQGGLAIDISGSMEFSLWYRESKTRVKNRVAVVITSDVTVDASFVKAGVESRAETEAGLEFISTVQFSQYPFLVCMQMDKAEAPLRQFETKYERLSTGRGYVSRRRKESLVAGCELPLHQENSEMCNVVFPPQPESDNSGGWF", "T1 sequence (P09103 21-509 partner limits assumed)": "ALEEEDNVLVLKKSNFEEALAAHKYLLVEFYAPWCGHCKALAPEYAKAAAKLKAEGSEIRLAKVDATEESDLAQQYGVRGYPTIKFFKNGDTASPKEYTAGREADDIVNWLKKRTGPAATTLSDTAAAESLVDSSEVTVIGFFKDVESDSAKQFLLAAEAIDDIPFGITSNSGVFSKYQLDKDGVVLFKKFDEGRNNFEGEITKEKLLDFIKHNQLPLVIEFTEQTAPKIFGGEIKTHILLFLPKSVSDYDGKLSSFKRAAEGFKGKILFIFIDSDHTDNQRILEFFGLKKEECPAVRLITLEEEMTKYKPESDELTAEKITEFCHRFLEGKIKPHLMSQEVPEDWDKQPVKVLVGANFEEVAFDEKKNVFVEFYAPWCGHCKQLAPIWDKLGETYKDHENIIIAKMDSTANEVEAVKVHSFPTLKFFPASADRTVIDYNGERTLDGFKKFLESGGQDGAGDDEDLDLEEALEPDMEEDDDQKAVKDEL", "assay": "Determination of MTP activity in tissues (liver homogenates of treated mice)", "format": "in vivo", "settings": "Reversa mice, plpC vs PBS", "procedure": "After extensive washes with ice-cold PBS, small pieces (0.1 g) of liver and ˜1-cm segments of proximal small intestine were homogenized with 1 ml of ice-cold 1 mM Tris-HCl, pH 7.6, 1 mM EGTA, and 1 mM MgCl2 buffer in a glass homogenizer. The homogenates were centrifuged (SW55 Ti rotor, 50,000 rpm, 10° C., 1 h), and supernatants were used for MTP assay as described before (41; 42) using a kit (Chylos, Inc.)."}, "[2]": {"settings": "CP-346086 15 mg/kg/day oral 1 week, vs control"}, "[3]": {"settings": "MTP deficient (plpC) Reversa mice, oral 30 days"}, "[4]": {"settings": "plpC-injected Reversa mice, Lova 50, T0 50, WY 10 mg/kg/day oral or Ω-3 FA 3 mg/kg/2 day ip, vs plpC control"}},
  "data": [
    {"molecule": "O=C(Nc1ccc2c(c1)CCN(Cc1ncn[nH]1)C2)c1ccccc1-c1ccc(C(F)(F)F)cc1", "note": "[CP-346086]", "values": [
      {"measurement": "plasma AST/ALT", "setting": "[1]; CP-346086 15 mg/kg/day 1 week ± lovastatin 50 or WY14643 10 mg/kg/day, MTPi vs control, co-drugs vs MTPi", "result": "significantly enhanced"},
      {"measurement": "Plasma total and HDL cholesterol", "setting": "[1]; [2]", "result": "unaffected"},
      {"measurement": "plasma total and LDL triglyceride, and LDL cholesterol", "setting": "[1]; [2]", "result": "significantly lower"}
    ]},
    {"molecule": "O=S(=O)(c1ccccc1)N(CC(F)(F)F)c1ccc(C(O)(C(F)(F)F)C(F)(F)F)cc1", "note": "[T0901317]", "values": [
      {"measurement": "plasma cholesterol", "setting": "Reversa mice; [3]", "result": "no effect"},
      {"measurement": "plasma triglycerides", "setting": "Reversa mice; [3]", "result": "no effect"},
      {"measurement": "hepatic free and total cholesterol", "setting": "Reversa mice; [4]", "result": "significantly reduced"},
      {"measurement": "hepatic triglyceride", "setting": "Reversa mice; [4]", "result": "no effect"}
    ]},
    {"molecule": "polyinosinic polycytidylic ribonucleic acid [plpC]", "values": [
      {"measurement": "decrease in non-HDL-cholesterol", "setting": "Reversa mice; Reversa mice, plpC vs PBS", "result": "~40", "unit": "%"},
      {"measurement": "decrease of plasma total triglyceride and cholesterol", "setting": "Reversa mice; Reversa mice, plpC vs PBS", "result": 50, "unit": "%"},
      {"measurement": "increase of hepatic free cholesterol", "setting": "Reversa mice; Reversa mice, plpC vs PBS", "result": 50, "unit": "%"},
      {"measurement": "increase of hepatic triglyceride", "setting": "Reversa mice; Reversa mice, plpC vs PBS", "result": 2, "unit": "fold"},
      {"measurement": "increase of plasma ALT and AST", "setting": "Reversa mice; Reversa mice, plpC vs PBS", "result": "2-3 fold"},
      {"measurement": "reduction of hepatic cholesteryl esters (CE)", "setting": "Reversa mice; Reversa mice, plpC vs PBS", "result": "~30", "unit": "%"},
      {"measurement": "reduction of hepatic MTP activity compared to controls", "setting": "MTP", "result": "~75", "unit": "%"}
    ]}
  ]
}
